{
  "source": "patent US8415296B2",
  "about": "“Oxyntomodulin peptide analogue” (Eli Lilly and Company, priority 2009, dated 2013)",
  "assay_type_in_all_cases": "in vivo",
  "key": {"[1]": {"assay": "Oral glucose tolerance test in ob/ob mice", "conditions": "for Glucose AUC, MEAN: OGTT, 0 to 120 min", "protocol": "(§1) Two to three months old male ob/ob mice are individually housed in a temperature-controlled (24° C.) facility with a 12 hour light/dark cycle (lights on 2200 hours), and have free access to food and water. After at least 2 weeks of acclimation to the facility, 3-hours fasting blood glucose is measured by tail vein bleeding at 9 AM. Mice with blood glucose under 180 mg/dL are not used. Remaining animals are randomized to treatment groups (N=7/group), each group having similar average blood glucose level. The mice are given access to food until the time of injection. […] Food is removed at the time of injection. An OGTT (Table 7) or IPGTT (Table 8) is performed 16 hours after the peptide injection. At time 0, animals are given 2 g/kg dextrose by oral gavage (Table 7) or intraperitoneal injection (Table 8). Blood is collected by tail vein bleeding at 0, 15, 30, 60 and 120 minutes after glucose challenge. Blood glucose concentration is measured by glucometer."}, "[2]": {"assay": "Oral glucose tolerance test after 2-week treatment in DIO mice", "conditions": "for Glucose AUC, MEAN: oral glucose load 2 g/kg, 0 to 120 min", "protocol": "(§2) Fifty-six hours after the fifth injection as described in Example 7 in DIO mice, mice are fasted for 16 hours prior to the start of the glucose tolerance test. At time 0, animals are given 2 g/kg dextrose by oral gavage (Table 3, Study 1) or intraperitoneal (IP) injection (Table 4, Study 2). Blood is collected by tail vein bleeding at 0, 15, 30, 60 and 120 minutes after glucose challenge. Glucose concentration is measured by glucometer."}, "[3]": {"assay": "Food intake, body weight and body composition in diet-induced obese (DIO) mice", "conditions": "for reduction of cumulative food intake compared to the vehicle group: end of 2-week study; for Fat mass loss (g fat weight change for 14 days) / Overall weight loss (g weight change for 14 days) / Total food intake (g total for 14 days): mean ± SEM", "protocol": "Three to four months old male diet-induced obese (DIO) mice are individually housed in a temperature-controlled (24° C.) facility with a 12 hour light/dark cycle (lights on 22:00), and have free access to food and water. After 2 weeks acclimation to the facility, mice are randomized to treatment groups (n=8-10/group), each group having similar mean body weight and fat mass. Mice are subcutaneously (sc) injected with vehicle solution and weighed for 2 days to acclimate them to the procedures.\nBody weight and the weight of food plus the hopper are measured at the same time. Food consumed in the preceeding 24 hours is calculated by subtracting current weight of food plus the hopper from that of the previous day. Absolute changes in body weight are calculated by subtracting the body weight of the animal prior to the first injection. On days 1 and 14 total fat mass is measured by nuclear magnetic resonance (NMR) using an Echo Medical System (Houston, Tex.) instrument. Fat free mass is calculated by subtracting fat mass from total body weight."}, "[4]": {"assay": "Intraperitoneal glucose tolerance test in lean mice", "conditions": "IPGTT; for Glucose AUC, MEAN: 0 to 30 min; for Insulin AUC, MEAN: plasma insulin 0 to 30 min", "protocol": "Nine week old male C57BL/6 mice are used in the study Animals are randomized into groups based on fed body weight. […] Food is removed at the time of injection of peptide or vehicle. At time 0, animals are given 2 g/kg dextrose by IP injection. Blood is collected by tail vein bleeding at 0, 3, 6, 12 and 30 minutes after glucose challenge. Glucose concentration is measured by glucometer. Insulin is measure by Mesoscale."}, "[5]": {"assay": "Intraperitoneal glucose tolerance test in ob/ob mice", "conditions": "IPGTT, 0 to 120 min, 7.5 nmole/kg 16 hours before", "protocol": "as §1"}, "[6]": {"assay": "Intraperitoneal glucose tolerance test after 2-week treatment in DIO mice", "conditions": "ip glucose load 2 g/kg, 0 to 120 min", "protocol": "as §2"}, "[7]": {"conditions": "Study 1, DIO mice, 7.5 nmole/kg sc every 3 days"}, "[8]": {"conditions": "Study 1, DIO mice, 15 nmole/kg sc every 3 days"}, "[9]": {"conditions": "Study 1, DIO mice, 30 nmole/kg sc every 3 days"}, "[10]": {"conditions": "Study 2, DIO mice, 7.5 nmole/kg sc every 3 days"}, "[11]": {"conditions": "Study 2, DIO mice, 22.5 nmole/kg sc every 3 days"}},
  "note": "Marks after values point to notes of the source that are not given here.",
  "data": [
    {"substance": "His-(D-Ser)-Gln-Gly-Thr-Phe-Thr-Ser-Asp-(1-Nal)-Ser-Lys-Tyr-Leu-Asp-Glu-Lys-Ala-Ala-Gln-Glu-Phe-Val-Gln-Trp-Leu-Leu-Asn-(Aib)-Ala-Arg-Asn-Arg-Asn-Asn-Ile-Ala-Cys(20 kDa PEG)-Cys(20 kDa PEG)", "values": [
      {"measurement": "Glucose AUC, MEAN", "setting": "[1]; 7.5 nmole/kg 16 hours before", "result": "12103* mg*min/dL"},
      {"measurement": "Glucose AUC, MEAN", "setting": "[1]; 15 nmole/kg 16 hours before", "result": "14837* mg*min/dL"},
      {"measurement": "blood glucose in ob/ob mice", "setting": "[1]; single injection", "result": "normalized blood glucose"},
      {"measurement": "blood glucose at all time points before and after the oral glucose challenge vs vehicle", "setting": "[2]; all doses", "result": "significantly lowered"},
      {"measurement": "Glucose AUC, MEAN", "setting": "[2]; 7.5 nmole/kg", "result": "13802* mg*min/dL"},
      {"measurement": "Glucose AUC, MEAN", "setting": "[2]; 15 nmole/kg", "result": "12668* mg*min/dL"},
      {"measurement": "Glucose AUC, MEAN", "setting": "[2]; 30 nmole/kg", "result": "13056* mg*min/dL"},
      {"measurement": "cumulative weight loss compared to the vehicle group", "setting": "[3]; Study 1, 7.5 nmole/kg every 3 days, 2 weeks", "result": "about 6%"},
      {"measurement": "vehicle controlled cumulative weight loss", "setting": "[3]; Study 1, 15 nmole/kg every 3 days, 2 weeks", "result": 10, "unit": "%"},
      {"measurement": "reduction of cumulative food intake compared to the vehicle group", "setting": "[3]; Study 1, 15 nmole/kg", "result": 21, "unit": "%"},
      {"measurement": "vehicle controlled cumulative weight loss", "setting": "[3]; Study 1, 30 nmole/kg every 3 days, 2 weeks", "result": 15, "unit": "%"},
      {"measurement": "reduction of cumulative food intake compared to the vehicle group", "setting": "[3]; Study 1, 30 nmole/kg", "result": 27, "unit": "%"},
      {"measurement": "Fat mass loss (g fat weight change for 14 days)", "setting": "[3]; [7]", "result": "-1.1 ± 0.3", "unit": "g"},
      {"measurement": "Overall weight loss (g weight change for 14 days)", "setting": "[3]; [7]", "result": "-1.7 ± 0.3", "unit": "g"},
      {"measurement": "Total food intake (g total for 14 days)", "setting": "[3]; [7]", "result": "36.5 ± 1.2", "unit": "g"},
      {"measurement": "Fat mass loss (g fat weight change for 14 days)", "setting": "[3]; [8]", "result": "-2.7 ± 0.2", "unit": "g"},
      {"measurement": "Overall weight loss (g weight change for 14 days)", "setting": "[3]; [8]", "result": "-3.5 ± 0.3", "unit": "g"},
      {"measurement": "Total food intake (g total for 14 days)", "setting": "[3]; [8]", "result": "31.4 ± 0.9", "unit": "g"},
      {"measurement": "Fat mass loss (g fat weight change for 14 days)", "setting": "[3]; [9]", "result": "-4.0 ± 0.3", "unit": "g"},
      {"measurement": "Overall weight loss (g weight change for 14 days)", "setting": "[3]; [9]", "result": "-5.6 ± 0.4", "unit": "g"},
      {"measurement": "Total food intake (g total for 14 days)", "setting": "[3]; [9]", "result": "29.0 ± 1.3", "unit": "g"},
      {"measurement": "Fat mass loss (g fat weight change for 14 days)", "setting": "[3]; [10]", "result": "-1.6 ± 0.2", "unit": "g"},
      {"measurement": "Overall weight loss (g weight change for 14 days)", "setting": "[3]; [10]", "result": "-2.5 ± 0.3", "unit": "g"},
      {"measurement": "Total food intake (g total for 14 days)", "setting": "[3]; [10]", "result": "33.3 ± 0.6", "unit": "g"},
      {"measurement": "Fat mass loss (g fat weight change for 14 days)", "setting": "[3]; [11]", "result": "-3.8 ± 0.2", "unit": "g"},
      {"measurement": "Overall weight loss (g weight change for 14 days)", "setting": "[3]; [11]", "result": "-5.2 ± 0.2", "unit": "g"},
      {"measurement": "Total food intake (g total for 14 days)", "setting": "[3]; [11]", "result": "28.7 ± 0.6", "unit": "g"},
      {"measurement": "decrease of body weight", "setting": "[3]; Study 2, high dose (22.5 nmole/kg) every 3 days, 2 weeks", "result": "~10", "unit": "%"},
      {"measurement": "decrease of body weight", "setting": "[3]; Study 2, low dose (7.5 nmole/kg) every 3 days, 2 weeks", "result": "about 5%"},
      {"measurement": "Glucose AUC, MEAN", "setting": "[4]; 5 nmole/kg 16 hours before", "result": "6287* mg*min/dL"},
      {"measurement": "Glucose AUC, MEAN", "setting": "[4]; 15 nmole/kg 16 hours before", "result": "6881* mg*min/dL"},
      {"measurement": "Insulin AUC, MEAN", "setting": "[4]; 5 nmole/kg", "result": "33.29* ng*min/mL"},
      {"measurement": "Insulin AUC, MEAN", "setting": "[4]; 15 nmole/kg", "result": "58.32* ng*min/mL"},
      {"measurement": "Glucose AUC, MEAN", "setting": "[5]", "result": "16944* mg*min/dL"},
      {"measurement": "Glucose AUC, MEAN", "setting": "[6]; 7.5 nmole/kg", "result": "19198* mg*min/dL"},
      {"measurement": "Glucose AUC, MEAN", "setting": "[6]; 22.5 nmole/kg", "result": "15720* mg*min/dL"}
    ]}
  ]
}
